Test [1] concerns the target T1, human NTS2 (Homo sapiens, UniProt O95665). As to the kind of experiment: Radioligand binding at human NTS2 with [3H]NT. As to conditions: SEM.
For test [2], the target named is T1, human NTS2. As to conditions: replacement of Tyr11 by alanine; ref [7]; cited from earlier work.
Another test has as its target human NTS1 (Homo sapiens, UniProt P30989). As to conditions: replacement of Tyr11 by alanine; ref [7]; cited from earlier work.

T1 sequence (O95665 whole entry): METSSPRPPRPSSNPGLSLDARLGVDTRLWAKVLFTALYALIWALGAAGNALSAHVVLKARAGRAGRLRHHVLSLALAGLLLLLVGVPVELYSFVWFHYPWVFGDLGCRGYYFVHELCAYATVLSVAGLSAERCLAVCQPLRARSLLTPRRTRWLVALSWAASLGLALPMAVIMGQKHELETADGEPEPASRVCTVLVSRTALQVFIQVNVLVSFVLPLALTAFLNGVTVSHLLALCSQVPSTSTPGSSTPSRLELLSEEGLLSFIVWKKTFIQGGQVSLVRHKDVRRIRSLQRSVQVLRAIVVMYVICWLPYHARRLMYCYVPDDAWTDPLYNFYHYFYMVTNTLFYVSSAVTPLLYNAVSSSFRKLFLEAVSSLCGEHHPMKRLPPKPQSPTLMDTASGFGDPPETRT
human NTS1, sequence (P30989 whole entry): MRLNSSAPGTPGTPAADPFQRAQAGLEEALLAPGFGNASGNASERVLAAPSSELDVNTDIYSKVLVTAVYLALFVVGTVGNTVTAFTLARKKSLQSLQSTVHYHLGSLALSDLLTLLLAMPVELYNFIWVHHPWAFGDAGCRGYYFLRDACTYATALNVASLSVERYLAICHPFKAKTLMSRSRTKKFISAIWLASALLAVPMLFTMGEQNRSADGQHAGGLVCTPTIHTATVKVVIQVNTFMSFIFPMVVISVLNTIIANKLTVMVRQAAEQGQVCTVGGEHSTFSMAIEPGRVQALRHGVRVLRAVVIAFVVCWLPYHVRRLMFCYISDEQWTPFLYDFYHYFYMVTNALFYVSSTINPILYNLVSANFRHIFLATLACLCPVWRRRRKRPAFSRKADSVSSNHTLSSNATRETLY

As to `CC[C@H](C)[C@H](NC(=O)CN(CCc1ccn2nccc2c1)C(=O)[C@@H]1CCCN1C(=O)[C@H](CCCNC(=N)N)NC(=O)[C@@H](N)CCCNC(=N)N)C(=O)N[C@@H](CC(C)C)C(=O)O` [compound 3, [^11N-{5-(2-Aminoethyl)pyrazolo[1,5-a]pyridine}-Gly]NT(8–13)], affinity on human NTS2 [1] was put at a Ki of 0.52 ± 0.17 µM.

In the case of [^11Ala]NT(8–13), the “decrease of affinity towards NTS2 compared to NT(8–13)” value at human NTS2 [2] is on record as 70 fold. The “reduction of ligand affinity at NTS1 compared to NT(8–13)” value on human NTS1 is reported as 5400 fold.
